Key:
ISC-enriched organoids [1] = test: Primary screen, 384-well 2.5-D organoid differentiation (ENR+CD, 6 days): basal lysozyme secretion (LYZ.NS); format: cell-based, murine; settings: for Dose.FC.LYZ.NS (log 2 fold change) / Dose.FC.LYZ.NS (log 2 fold change, basal lysozyme secretion): vs plate median; for Dose.FC.LYZ.NS: FC vs plate median; for Z.LYZ.NS: standard z score; for SSMD.LYZ.NS: strictly standardized mean difference
From the text: (§1) High-throughput screening.

ISC-enriched organoids [2] = test: Primary screen, 384-well 2.5-D organoid differentiation (ENR+CD, 6 days): carbachol-induced lysozyme secretion (LYZ.S); format: cell-based, murine; settings: for Dose.FC.LYZ.S (log 2 fold change) / Dose.FC.LYZ.S / Z.LYZ.S / SSMD.LYZ.S: primary screen; for Dose.FC.LYZ.S (log 2 fold change) / Dose.FC.LYZ.S (log 2 fold change, carbachol-induced lysozyme secretion): vs plate median; for Dose.FC.LYZ.S: FC vs plate median; for Z.LYZ.S: standard z score; for SSMD.LYZ.S: strictly standardized mean difference
From the text: as §1

ISC-enriched organoids [3] = test: Primary screen, 384-well 2.5-D organoid differentiation (ENR+CD, 6 days, Target Selective Inhibitor Library, vs whole-plate median): ATP (CellTiter-Glo 3D, CTG); settings: for Dose.FC.CTG (log 2 fold change) / Dose.FC.CTG (log 2 fold change, ATP): vs plate median; for Dose.FC.CTG: FC vs plate median; for Z.CTG: standard z score; for SSMD.CTG: strictly standardized mean difference
[4] = primary screen, 1st of the 4 dose lines of the treatment (dose not given)
[5] = primary screen, 2nd of the 4 dose lines of the treatment (dose not given)
[6] = primary screen, 3rd of the 4 dose lines of the treatment (dose not given)
[7] = primary screen, 4th of the 4 dose lines of the treatment (dose not given)
[8] = 1st of the 4 dose lines of the treatment (dose not given)
[9] = 2nd of the 4 dose lines of the treatment (dose not given)
[10] = 3rd of the 4 dose lines of the treatment (dose not given)
[11] = 4th of the 4 dose lines of the treatment (dose not given)

COc1ccc(C(=O)Nc2sc3c(c2C(N)=O)CCCC3)cc1OC [TCS 359]
Z.LYZ.NS (standard z score) (ISC-enriched organoids [1]; Dose 0.08 uM, primary screen): 0.742 | Dose.FC.LYZ.NS (log 2 fold change) (ISC-enriched organoids [1]; Dose 0.08 uM, primary screen): 0.085 | Z.LYZ.NS (standard z score) (ISC-enriched organoids [1]; Dose 0.40 uM, primary screen): 0.502 | Dose.FC.LYZ.NS (log 2 fold change) (ISC-enriched organoids [1]; Dose 0.40 uM, primary screen): 0.058 | Z.LYZ.NS (standard z score) (ISC-enriched organoids [1]; Dose 2.00 uM, primary screen): 0.156 | Dose.FC.LYZ.NS (log 2 fold change) (ISC-enriched organoids [1]; Dose 2.00 uM, primary screen): 0.018 | Z.LYZ.NS (standard z score) (ISC-enriched organoids [1]; Dose 10.00 uM, primary screen): −0.072 | Dose.FC.LYZ.NS (log 2 fold change) (ISC-enriched organoids [1]; Dose 10.00 uM, primary screen): −0.008 | Dose.FC.LYZ.S (log 2 fold change) (ISC-enriched organoids [2]; Dose 0.08 uM): 0.098 | Dose.FC.LYZ.S (log 2 fold change) (ISC-enriched organoids [2]; Dose 0.40 uM): 0.069 | Dose.FC.LYZ.S (log 2 fold change) (ISC-enriched organoids [2]; Dose 2.00 uM): −0.006 | Dose.FC.LYZ.S (log 2 fold change) (ISC-enriched organoids [2]; Dose 10.00 uM): 0.026 | Z.CTG (standard z score) (ISC-enriched organoids [3]; Dose 0.08 uM, primary screen): 0.358 | Dose.FC.CTG (log 2 fold change) (ISC-enriched organoids [3]; Dose 0.08 uM, primary screen): 0.150 | Z.CTG (standard z score) (ISC-enriched organoids [3]; Dose 0.40 uM, primary screen): 0.598 | Dose.FC.CTG (log 2 fold change) (ISC-enriched organoids [3]; Dose 0.40 uM, primary screen): 0.250 | Z.CTG (standard z score) (ISC-enriched organoids [3]; Dose 2.00 uM, primary screen): 0.119 | Dose.FC.CTG (log 2 fold change) (ISC-enriched organoids [3]; Dose 2.00 uM, primary screen): 0.050 | Z.CTG (standard z score) (ISC-enriched organoids [3]; Dose 10.00 uM, primary screen): −0.212 | Dose.FC.CTG (log 2 fold change) (ISC-enriched organoids [3]; Dose 10.00 uM, primary screen): −0.089

CNC(=O)c1ccccc1Nc1nc(Nc2ccc(N3CCOCC3)cc2OC)ncc1Cl [TAE226 (NVP-TAE226)]
Z.LYZ.NS (standard z score) (ISC-enriched organoids [1]; Dose 0.08 uM, primary screen): −2.226 | Dose.FC.LYZ.NS (log 2 fold change) (ISC-enriched organoids [1]; Dose 0.08 uM, primary screen): −0.256 | Z.LYZ.NS (standard z score) (ISC-enriched organoids [1]; Dose 0.40 uM, primary screen): −2.650 | Dose.FC.LYZ.NS (log 2 fold change) (ISC-enriched organoids [1]; Dose 0.40 uM, primary screen): −0.304 | Z.LYZ.NS (standard z score) (ISC-enriched organoids [1]; Dose 2.00 uM, primary screen): −2.813 | Dose.FC.LYZ.NS (log 2 fold change) (ISC-enriched organoids [1]; Dose 2.00 uM, primary screen): −0.323 | Z.LYZ.NS (standard z score) (ISC-enriched organoids [1]; Dose 10.00 uM, primary screen): −2.545 | Dose.FC.LYZ.NS (log 2 fold change) (ISC-enriched organoids [1]; Dose 10.00 uM, primary screen): −0.292 | Dose.FC.LYZ.S (log 2 fold change) (ISC-enriched organoids [2]; Dose 0.08 uM): −0.333 | Dose.FC.LYZ.S (log 2 fold change) (ISC-enriched organoids [2]; Dose 0.40 uM): −0.376 | Dose.FC.LYZ.S (log 2 fold change) (ISC-enriched organoids [2]; Dose 2.00 uM): −0.400 | Dose.FC.LYZ.S (log 2 fold change) (ISC-enriched organoids [2]; Dose 10.00 uM): −0.426 | Z.CTG (standard z score) (ISC-enriched organoids [3]; Dose 0.08 uM, primary screen): −1.127 | Dose.FC.CTG (log 2 fold change) (ISC-enriched organoids [3]; Dose 0.08 uM, primary screen): −0.472 | Z.CTG (standard z score) (ISC-enriched organoids [3]; Dose 0.40 uM, primary screen): −2.689 | Dose.FC.CTG (log 2 fold change) (ISC-enriched organoids [3]; Dose 0.40 uM, primary screen): −1.126 | Z.CTG (standard z score) (ISC-enriched organoids [3]; Dose 2.00 uM, primary screen): −3.068 | Dose.FC.CTG (log 2 fold change) (ISC-enriched organoids [3]; Dose 2.00 uM, primary screen): −1.284 | Z.CTG (standard z score) (ISC-enriched organoids [3]; Dose 10.00 uM, primary screen): −2.363 | Dose.FC.CTG (log 2 fold change) (ISC-enriched organoids [3]; Dose 10.00 uM, primary screen): −0.989

COCC[n+]1c2c(n(Cc3cnccn3)c1C)C(=O)c1ccccc1C2=O.[Br-] [YM155 (Sepantronium Bromide)]
Z.LYZ.NS (standard z score) (ISC-enriched organoids [1]; dose 0.08 uM): 0.995 | Dose.FC.LYZ.NS (log 2 fold change, basal lysozyme secretion) (ISC-enriched organoids [1]; dose 0.08 uM): 0.114 | Z.LYZ.NS (standard z score) (ISC-enriched organoids [1]; dose 0.40 uM): −0.266 | Dose.FC.LYZ.NS (log 2 fold change, basal lysozyme secretion) (ISC-enriched organoids [1]; dose 0.40 uM): −0.031 | Z.LYZ.NS (standard z score) (ISC-enriched organoids [1]; dose 2.00 uM): −0.714 | Dose.FC.LYZ.NS (log 2 fold change, basal lysozyme secretion) (ISC-enriched organoids [1]; dose 2.00 uM): −0.082 | Z.LYZ.NS (standard z score) (ISC-enriched organoids [1]; dose 10.00 uM): −0.839 | Dose.FC.LYZ.NS (log 2 fold change, basal lysozyme secretion) (ISC-enriched organoids [1]; dose 10.00 uM): −0.096 | Dose.FC.LYZ.S (log 2 fold change, carbachol-induced lysozyme secretion) (ISC-enriched organoids [2]; dose 0.08 uM): 0.172 | Dose.FC.LYZ.S (log 2 fold change, carbachol-induced lysozyme secretion) (ISC-enriched organoids [2]; dose 0.40 uM): −0.039 | Dose.FC.LYZ.S (log 2 fold change, carbachol-induced lysozyme secretion) (ISC-enriched organoids [2]; dose 2.00 uM): −0.137 | Dose.FC.LYZ.S (log 2 fold change, carbachol-induced lysozyme secretion) (ISC-enriched organoids [2]; dose 10.00 uM): −0.210 | Z.CTG (standard z score) (ISC-enriched organoids [3]; dose 0.08 uM): 0.531 | Dose.FC.CTG (log 2 fold change, ATP) (ISC-enriched organoids [3]; dose 0.08 uM): 0.222 | Z.CTG (standard z score) (ISC-enriched organoids [3]; dose 0.40 uM): −0.198 | Dose.FC.CTG (log 2 fold change, ATP) (ISC-enriched organoids [3]; dose 0.40 uM): −0.083 | Z.CTG (standard z score) (ISC-enriched organoids [3]; dose 2.00 uM): −1.100 | Dose.FC.CTG (log 2 fold change, ATP) (ISC-enriched organoids [3]; dose 2.00 uM): −0.460 | Z.CTG (standard z score) (ISC-enriched organoids [3]; dose 10.00 uM): −2.316 | Dose.FC.CTG (log 2 fold change, ATP) (ISC-enriched organoids [3]; dose 10.00 uM): −0.970

COc1cc(-n2c(=S)[nH]c3ccccc3c2=O)c(Cl)cc1Cl [Mdivi-1]
Dose.FC.LYZ.NS (ISC-enriched organoids [1]; Dose 0.08 uM, primary screen): 0.177 log 2 fold change | Z.LYZ.NS (ISC-enriched organoids [1]; Dose 0.08 uM, primary screen): 1.537 | Dose.FC.LYZ.NS (ISC-enriched organoids [1]; Dose 0.40 uM, primary screen): 0.156 log 2 fold change | Z.LYZ.NS (ISC-enriched organoids [1]; Dose 0.40 uM, primary screen): 1.358 | Dose.FC.LYZ.NS (ISC-enriched organoids [1]; Dose 2.00 uM, primary screen): −0.022 log 2 fold change | Z.LYZ.NS (ISC-enriched organoids [1]; Dose 2.00 uM, primary screen): −0.194 | Dose.FC.LYZ.NS (ISC-enriched organoids [1]; Dose 10.00 uM, primary screen): −0.268 log 2 fold change | Z.LYZ.NS (ISC-enriched organoids [1]; Dose 10.00 uM, primary screen): −2.333 | SSMD.LYZ.NS (ISC-enriched organoids [1]; [4]): 0.715 | SSMD.LYZ.NS (ISC-enriched organoids [1]; [5]): 0.481 | SSMD.LYZ.NS (ISC-enriched organoids [1]; [6]): −0.093 | SSMD.LYZ.NS (ISC-enriched organoids [1]; [7]): −1.749 | Dose.FC.LYZ.S (ISC-enriched organoids [2]; Dose 0.08 uM): 0.079 log 2 fold change | Dose.FC.LYZ.S (ISC-enriched organoids [2]; Dose 0.40 uM): 0.030 log 2 fold change | Dose.FC.LYZ.S (ISC-enriched organoids [2]; Dose 2.00 uM): −0.048 log 2 fold change | Dose.FC.LYZ.S (ISC-enriched organoids [2]; Dose 10.00 uM): −0.411 log 2 fold change | Z.LYZ.S (ISC-enriched organoids [2]; [8]): 0.511 | Z.LYZ.S (ISC-enriched organoids [2]; [9]): 0.196 | Z.LYZ.S (ISC-enriched organoids [2]; [10]): −0.310 | Z.LYZ.S (ISC-enriched organoids [2]; [11]): −2.655 | SSMD.LYZ.S (ISC-enriched organoids [2]; [8]): 0.520 | SSMD.LYZ.S (ISC-enriched organoids [2]; [9]): 0.152 | SSMD.LYZ.S (ISC-enriched organoids [2]; [10]): −0.196 | SSMD.LYZ.S (ISC-enriched organoids [2]; [11]): −2.328 | Dose.FC.CTG (ISC-enriched organoids [3]; Dose 0.08 uM, primary screen): 0.008 log 2 fold change | Z.CTG (ISC-enriched organoids [3]; Dose 0.08 uM, primary screen): 0.019 | Dose.FC.CTG (ISC-enriched organoids [3]; Dose 0.40 uM, primary screen): −0.031 log 2 fold change | Z.CTG (ISC-enriched organoids [3]; Dose 0.40 uM, primary screen): −0.074 | Dose.FC.CTG (ISC-enriched organoids [3]; Dose 2.00 uM, primary screen): −0.112 log 2 fold change | Z.CTG (ISC-enriched organoids [3]; Dose 2.00 uM, primary screen): −0.267 | Dose.FC.CTG (ISC-enriched organoids [3]; Dose 10.00 uM, primary screen): −0.527 log 2 fold change | Z.CTG (ISC-enriched organoids [3]; Dose 10.00 uM, primary screen): −1.259 | SSMD.CTG (ISC-enriched organoids [3]; [4]): 0.026 | SSMD.CTG (ISC-enriched organoids [3]; [5]): −0.072 | SSMD.CTG (ISC-enriched organoids [3]; [6]): −0.356 | SSMD.CTG (ISC-enriched organoids [3]; [7]): −1.838
